One experiment has as its target T1, B1 bradykinin receptor (Homo sapiens, UniProt P46663).
T1 sequence (P46663 whole entry): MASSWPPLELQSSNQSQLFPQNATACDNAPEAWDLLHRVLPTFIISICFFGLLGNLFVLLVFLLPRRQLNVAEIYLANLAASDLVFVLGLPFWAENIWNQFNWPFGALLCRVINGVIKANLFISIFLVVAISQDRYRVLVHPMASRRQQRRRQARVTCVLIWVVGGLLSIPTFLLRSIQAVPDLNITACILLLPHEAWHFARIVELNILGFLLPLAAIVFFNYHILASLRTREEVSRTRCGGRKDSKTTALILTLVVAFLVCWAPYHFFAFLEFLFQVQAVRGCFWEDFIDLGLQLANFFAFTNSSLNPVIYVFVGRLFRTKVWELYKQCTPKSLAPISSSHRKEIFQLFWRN

For experiment [1], the target named is T2, Gastric inhibitory polypeptide receptor (Homo sapiens, UniProt P48546).
T2 sequence (P48546 whole entry): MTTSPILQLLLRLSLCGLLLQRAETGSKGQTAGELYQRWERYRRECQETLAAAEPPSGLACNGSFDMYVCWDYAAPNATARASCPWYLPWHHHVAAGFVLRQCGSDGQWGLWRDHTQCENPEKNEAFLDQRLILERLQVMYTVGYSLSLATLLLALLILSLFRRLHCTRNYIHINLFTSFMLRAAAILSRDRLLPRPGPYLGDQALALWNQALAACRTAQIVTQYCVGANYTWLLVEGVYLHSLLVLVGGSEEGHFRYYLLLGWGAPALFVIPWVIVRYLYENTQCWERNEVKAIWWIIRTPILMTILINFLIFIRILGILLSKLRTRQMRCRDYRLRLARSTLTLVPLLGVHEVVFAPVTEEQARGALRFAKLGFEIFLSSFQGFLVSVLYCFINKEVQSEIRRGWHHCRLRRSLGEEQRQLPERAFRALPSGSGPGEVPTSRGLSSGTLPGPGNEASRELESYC

Experiment [2] addresses T3, Corticotropin-releasing factor receptor 1 (Homo sapiens, UniProt P34998).
T3 sequence (P34998 whole entry): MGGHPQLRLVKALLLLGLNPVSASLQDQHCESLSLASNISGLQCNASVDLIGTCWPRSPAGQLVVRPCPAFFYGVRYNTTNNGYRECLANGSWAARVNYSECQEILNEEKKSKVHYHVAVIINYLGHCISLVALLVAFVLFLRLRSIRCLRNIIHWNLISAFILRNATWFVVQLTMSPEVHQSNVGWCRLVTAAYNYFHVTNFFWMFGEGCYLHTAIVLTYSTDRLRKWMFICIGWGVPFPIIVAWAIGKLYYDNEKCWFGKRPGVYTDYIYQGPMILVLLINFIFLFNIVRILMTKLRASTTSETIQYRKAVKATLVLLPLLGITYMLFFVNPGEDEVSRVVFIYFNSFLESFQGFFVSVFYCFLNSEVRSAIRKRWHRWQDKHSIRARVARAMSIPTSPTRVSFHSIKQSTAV

Experiment [3] addresses T4, Muscarinic acetylcholine receptor M2 (Homo sapiens, UniProt P08172).
T4 sequence (P08172 whole entry): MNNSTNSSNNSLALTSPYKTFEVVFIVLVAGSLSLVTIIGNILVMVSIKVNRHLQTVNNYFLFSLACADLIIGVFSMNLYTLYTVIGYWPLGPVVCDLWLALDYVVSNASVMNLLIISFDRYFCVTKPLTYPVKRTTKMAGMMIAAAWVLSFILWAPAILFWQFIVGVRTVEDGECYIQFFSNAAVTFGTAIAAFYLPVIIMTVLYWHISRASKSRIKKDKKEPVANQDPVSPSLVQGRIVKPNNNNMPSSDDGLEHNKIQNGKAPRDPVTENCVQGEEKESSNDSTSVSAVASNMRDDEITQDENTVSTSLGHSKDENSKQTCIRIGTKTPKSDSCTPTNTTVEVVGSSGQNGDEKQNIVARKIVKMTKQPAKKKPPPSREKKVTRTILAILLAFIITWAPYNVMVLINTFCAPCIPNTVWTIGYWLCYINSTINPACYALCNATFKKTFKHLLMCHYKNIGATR

For the next experiment, the target named is T5, Glucocorticoid receptor (Homo sapiens, UniProt P04150).
T5 sequence (P04150 whole entry): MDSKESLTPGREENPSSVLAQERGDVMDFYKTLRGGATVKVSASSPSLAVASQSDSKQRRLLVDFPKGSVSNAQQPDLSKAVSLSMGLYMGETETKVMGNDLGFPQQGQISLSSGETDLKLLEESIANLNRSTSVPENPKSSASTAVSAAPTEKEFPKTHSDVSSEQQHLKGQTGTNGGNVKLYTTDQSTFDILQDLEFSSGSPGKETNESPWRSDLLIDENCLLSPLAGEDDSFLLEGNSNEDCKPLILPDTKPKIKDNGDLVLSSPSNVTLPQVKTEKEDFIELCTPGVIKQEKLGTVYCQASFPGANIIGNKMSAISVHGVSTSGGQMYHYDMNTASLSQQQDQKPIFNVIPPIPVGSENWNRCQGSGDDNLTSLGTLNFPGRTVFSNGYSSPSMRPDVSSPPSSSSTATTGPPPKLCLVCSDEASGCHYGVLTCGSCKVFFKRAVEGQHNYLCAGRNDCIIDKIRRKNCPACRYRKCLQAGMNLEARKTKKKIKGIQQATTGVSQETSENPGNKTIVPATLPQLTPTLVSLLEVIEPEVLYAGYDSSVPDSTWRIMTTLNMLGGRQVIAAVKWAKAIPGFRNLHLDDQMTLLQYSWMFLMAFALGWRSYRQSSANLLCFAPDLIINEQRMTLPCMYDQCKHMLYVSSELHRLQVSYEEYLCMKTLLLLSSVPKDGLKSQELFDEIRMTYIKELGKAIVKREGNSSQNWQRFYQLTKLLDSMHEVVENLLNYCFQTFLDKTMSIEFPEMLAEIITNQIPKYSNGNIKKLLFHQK
The format is functional.

In experiment [4] the target is T6, Peroxisome proliferator-activated receptor gamma (Homo sapiens, UniProt P37231).
T6 sequence (P37231 whole entry): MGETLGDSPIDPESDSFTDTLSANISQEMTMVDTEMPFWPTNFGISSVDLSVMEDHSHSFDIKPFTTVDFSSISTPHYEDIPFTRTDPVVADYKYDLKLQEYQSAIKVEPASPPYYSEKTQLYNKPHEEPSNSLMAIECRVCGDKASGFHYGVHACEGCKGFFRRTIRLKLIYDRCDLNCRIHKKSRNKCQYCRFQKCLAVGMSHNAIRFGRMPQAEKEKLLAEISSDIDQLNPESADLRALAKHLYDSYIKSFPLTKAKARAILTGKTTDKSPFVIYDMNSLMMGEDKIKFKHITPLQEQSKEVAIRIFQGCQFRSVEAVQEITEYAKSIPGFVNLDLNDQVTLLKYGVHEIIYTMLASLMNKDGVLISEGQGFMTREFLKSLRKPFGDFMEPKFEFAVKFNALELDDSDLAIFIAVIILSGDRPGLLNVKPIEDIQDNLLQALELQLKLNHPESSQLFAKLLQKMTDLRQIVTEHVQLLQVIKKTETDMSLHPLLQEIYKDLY
The format is functional.

The AC50 is the midpoint of the concentration-response curve, whichever way the signal moves. Read a high AC50 as weaker potency.
Note: assay procedure not described here.

On to `CC(C(=O)O)c1ccc(N2CC=CC2)c(Cl)c1` (stereo not drawn) [PIRPROFEN], for which the AC50 was greater than 30 µM at B1 bradykinin receptor, greater than 30 µM in experiment [1], greater than 30 µM in experiment [2] and greater than 10 µM in experiment [3].

Compound `COc1ccc2c(c1)C(=O)N(CCc1ccc(S(=O)(=O)NC(=O)NC3CCCCC3)cc1)C(=O)C2(C)C` [GLIQUIDONE] displayed an AC50 at Glucocorticoid receptor of 8.9 µM.

Take `Oc1ncnc2[nH]ncc12` [ALLOPURINOL]: the AC50 is greater than 30 µM at B1 bradykinin receptor, greater than 30 µM in experiment [1], greater than 30 µM in experiment [2] and greater than 10 µM in experiment [3].

Turning to `O=C(CCCCCCC(=O)Nc1ccccc1)NO` [VORINOSTAT], the AC50 (at B1 bradykinin receptor; in experiment [3]) was greater than 10 µM each time.

`CCc1nn(CCCN2CCN(c3cccc(Cl)c3)CC2)c(=O)n1CCOc1ccccc1` [NEFAZODONE]: the AC50 (on B1 bradykinin receptor; in experiment [1]; in experiment [2]) was greater than 30 µM throughout.

For `COc1cc(Nc2c(C#N)cnc3cc(OCCCN4CCN(C)CC4)c(OC)cc23)c(Cl)cc1Cl` [BOSUTINIB], the AC50 on B1 bradykinin receptor was greater than 30 µM; in experiment [1], greater than 30 µM; in experiment [2], greater than 30 µM; in experiment [3], 6.04 µM.

As for `C#C[C@]1(O)CC[C@H]2[C@@H]3CCc4cc(O)ccc4[C@H]3CC[C@@]21C` [ETHINYL ESTRADIOL], the AC50 on B1 bradykinin receptor was greater than 30 µM; in experiment [1], greater than 30 µM; in experiment [2], greater than 30 µM; on Glucocorticoid receptor, greater than 30 µM; in experiment [3] it was greater than 10 µM.

Consider `CCc1ccc(CCOc2ccc(CC3SC(=O)NC3=O)cc2)nc1` (stereo not drawn) [PIOGLITAZONE], for which the AC50 (on B1 bradykinin receptor; in experiment [1]; in experiment [2]) was greater than 30 µM throughout.

As to `CCN(CC)CCNC(=O)c1cc(Cl)c(N)cc1OC` [METOCLOPRAMIDE], the AC50 (at B1 bradykinin receptor; in experiment [1]; in experiment [2]) was greater than 30 µM throughout.

With `CN(CCOc1ccc(NS(C)(=O)=O)cc1)CCc1ccc(NS(C)(=O)=O)cc1` [DOFETILIDE], the AC50 on B1 bradykinin receptor was greater than 30 µM; in experiment [1], greater than 30 µM; in experiment [2], greater than 30 µM; in experiment [3], greater than 10 µM.

In the case of `OCCN1CCN(CCCN2c3ccccc3C=Cc3ccccc32)CC1` [OPIPRAMOL], the AC50 in experiment [4] is greater than 30 µM.

As to `NS(=O)(=O)c1cc2c(cc1Cl)NCNS2(=O)=O` [HYDROCHLOROTHIAZIDE], the AC50 on B1 bradykinin receptor was greater than 30 µM; in experiment [1], greater than 30 µM; in experiment [2] it was greater than 30 µM; in experiment [3] it was greater than 10 µM.

As to `COC(=O)[C@@H]1CC2=CC(=O)CC[C@]2(C)[C@@]23O[C@@H]2C[C@@]2(C)[C@@H](CC[C@@]24CCC(=O)O4)[C@H]13` [EPLERENONE], the AC50 at B1 bradykinin receptor was greater than 30 µM; in experiment [1], greater than 30 µM; in experiment [2], greater than 30 µM; in experiment [4] it was greater than 30 µM; in experiment [3], greater than 10 µM.

As to `NC(N)=Nc1nc(CSCCC(N)=NS(N)(=O)=O)cs1` [FAMOTIDINE], the AC50 on B1 bradykinin receptor is greater than 30 µM; in experiment [1], greater than 30 µM; in experiment [2], greater than 30 µM; in experiment [3] it was greater than 10 µM.

Regarding `NC(=O)c1cnccn1` [PYRAZINAMIDE], the AC50 (at B1 bradykinin receptor; in experiment [1]; in experiment [2]) was greater than 30 µM in each case.

Regarding `N[C@@H](C(=O)N[C@@H]1C(=O)N2C(C(=O)O)=C(Cl)CS[C@H]12)c1ccccc1` [CEFACLOR ANHYDROUS], the AC50 in experiment [4] was greater than 30 µM.

Take `Nc1nc(N)c2nc(-c3ccccc3)c(N)nc2n1`: the AC50 at B1 bradykinin receptor was greater than 10 µM; in experiment [1], greater than 30 µM; in experiment [2], greater than 30 µM; in experiment [3], greater than 10 µM.

Consider `COc1cc2c(cc1OC)C(=O)C(CC1CCN(Cc3ccccc3)CC1)C2` (stereo not drawn) [DONEPEZIL], for which the AC50 (at B1 bradykinin receptor; in experiment [1]; in experiment [2]) was greater than 30 µM each time.

Consider `O=C(NC[C@H]1CN(c2ccc(N3CCOCC3=O)cc2)C(=O)O1)c1ccc(Cl)s1` [RIVAROXABAN], for which the AC50 on Glucocorticoid receptor is greater than 30 µM.

Take `C[C@H]1O[C@H](O[C@H]2[C@H](O)[C@@H](O)[C@@H](O[C@H]3[C@H](O)[C@@H](O)C(O)O[C@@H]3CO)O[C@@H]2CO)[C@H](O)[C@@H](O)[C@@H]1N[C@H]1C=C(CO)[C@@H](O)[C@H](O)[C@H]1O` (stereo partly drawn) [ACARBOSE]: the AC50 was greater than 30 µM on B1 bradykinin receptor, greater than 30 µM in experiment [1], greater than 30 µM in experiment [2] and greater than 10 µM in experiment [3].

For `Cc1ccc(C(=O)c2cc(O)c(O)c([N+](=O)[O-])c2)cc1` [TOLCAPONE], the AC50 at Glucocorticoid receptor is greater than 30 µM.

On to `CCOC(=O)[C@H](CCc1ccccc1)N[C@@H](C)C(=O)N1CCC[C@H]1C(=O)O`, for which the AC50 on B1 bradykinin receptor was greater than 30 µM; in experiment [1], greater than 30 µM; in experiment [2], greater than 30 µM; in experiment [3] it was greater than 10 µM.

On to `NC(=O)c1ncn([C@@H]2O[C@H](CO)[C@@H](O)[C@H]2O)c1O` [MIZORIBINE], for which the AC50 in experiment [4] is greater than 30 µM.

As for `CC(C)NCC(O)COc1ccc(COCCOC(C)C)cc1` (stereo not drawn) [BISOPROLOL], the concentration at half-maximal activity (AC50) at B1 bradykinin receptor is greater than 30 µM; in experiment [1] it was greater than 30 µM; in experiment [2] it was greater than 30 µM; in experiment [3] it was greater than 10 µM.

Compound `Cc1cccc(C)c1OCC(C)N` (stereo not drawn) [MEXILETINE] displayed an AC50 in experiment [4] greater than 30 µM.

With `CCC[C@@H]1C[C@@H](C(=O)N[C@@H]([C@H]2O[C@H](SC)[C@H](O)[C@@H](O)[C@H]2O)[C@H](C)Cl)N(C)C1` [CLINDAMYCIN], the AC50 was greater than 30 µM at B1 bradykinin receptor, greater than 30 µM in experiment [1], greater than 30 µM in experiment [2] and greater than 10 µM in experiment [3].

The values are drawn from ChEMBL document CHEMBL5291721, “A preclinical secondary pharmacology resource illuminates target-adverse drug reaction associations of marketed drugs” (Nat Commun, 2023).
